Source: publication PMC9781020, “Anti-Mycobacterial N-(2-Arylethyl)quinolin-3-amines Inspired by Marine Sponge-Derived Alkaloid” (Molecules, 2022)
Converted amounts (≈) assume the structure as drawn. Read-outs that look alike come from different tables or passages of the source.

Experiments:
M. bovis BCG = test: microbe, parasite or virus in culture; assay type: cell-based, Mycobacterium bovis BCG Pasteur; conditions: for MIC: Mycobacterium tuberculosis variant bovis BCG, BCG; for anti-mycobacterial activity (in words): M. bovis BCG
[1] = Cytotoxicity against HUVECs (WST-8); assay type: cell-based, human; conditions: human, HUVECs (human umbilical vein endothelial cells), 72 h
Experimental: (§1) HUVECs (5 × 10^5 cells/vial) was purchased from Kurabo Inc. and grown in HuMedia-EG2 medium with growth supplements (Kurabo Inc., Osaka, Japan). HUVECs in the culture medium was plated into each well of 96-well plates (2 × 10^3 cells/well/100 µL). After 24 h, the serially diluted compounds, which were dissolved in the medium containing no more than 0.5% EtOH, were added, and then the plates were incubated for an additional 72 h in a humidified atmosphere of 5% CO2 at 37 °C. The cell proliferation was detected by WST-8 colorimetric reagent (Nacalai Tesque, Inc., Kyoto, Japan). The IC50 value was determined by linear interpolation from the growth inhibition curve.

HUVECs = test: Cytotoxicity against HUVECs (WST-8); assay type: cell-based, human
Experimental: as §1

COC1=Cc2ccnc3c(NCCc4ccccc4)cnc(c23)C1=O [Compound 1, 3-(phenethylamino)demethyl(oxy)aaptamine, reference compound] showed an MIC (M. bovis BCG; 168 h, read-out: MIC (Aerobic)) of 1.56 µM (≈ 0.517 µg/mL), an MIC (M. bovis BCG; 336 h, read-out: MIC (Hypoxic)) of 1.56 µM (≈ 0.517 µg/mL) and an IC50 at 72 h [1] of 1.36 µM.

With COc1cc2ccnc(C(=O)NCCc3ccccc3)c2cc1OC [Compound 5, 6,7-Dimethoxy-N-phenethylisoquinoline-1-carboxamide] the “anti-mycobacterial activity (in words)” value (M. bovis BCG) was “weak anti-mycobacterial activity”, the MIC (M. bovis BCG; 168 h, read-out: MIC (Aerobic)) was 100 µM (≈ 33.6 µg/mL) and the MIC (M. bovis BCG; 336 h, read-out: MIC (Hypoxic)) was 200 µM (≈ 67.3 µg/mL). For the same compound, the IC50 at 72 h [1] was 11.9 µM.

Work on c1ccc(CCNc2cnc3ccccc3c2)cc1 [Compound 6, N-Phenethylquinolin-3-amine] yielded an MIC (M. bovis BCG; 168 h, read-out: MIC (Aerobic)) of 6.25 µM (≈ 1.55 µg/mL), an MIC (M. bovis BCG; 336 h, read-out: MIC (Hypoxic)) of 50 µM (≈ 12.4 µg/mL) and an IC50 at 72 h [1] of 18 µM.

For c1ccc(CCNc2cncc3cccnc23)cc1 [Compound 7, N-Phenethyl-1,6-naphthyridin-8-amine], the “anti-mycobacterial activity (in words)” value (M. bovis BCG) was “weak anti-mycobacterial activity”, the MIC (M. bovis BCG; 168 h, read-out: MIC (Aerobic)) was 100 µM (≈ 24.9 µg/mL) and the MIC (M. bovis BCG; 336 h, read-out: MIC (Hypoxic)) was 50 µM (≈ 12.5 µg/mL). It also gave an IC50 at 72 h [1] of 8.1 µM.

With c1ccc(CCNc2cccnc2)cc1 [Compound 8, N-Phenethylpyridin-3-amine] the “anti-mycobacterial activity (in words)” value (M. bovis BCG) was “weak anti-mycobacterial activity”, the MIC (M. bovis BCG; 168 h, read-out: MIC (Aerobic)) was 200 µM (≈ 39.7 µg/mL) and the MIC (M. bovis BCG; 336 h, read-out: MIC (Hypoxic)) was 200 µM (≈ 39.7 µg/mL). It also gave an IC50 at 72 h [1] greater than 100 µM.

With O=C1C=CC(=O)c2ncc(NCCc3ccccc3)cc21 [Compound 25, 3-(Phenethylamino)quinoline-5,8-dione] the “anti-mycobacterial activity (in words)” value (M. bovis BCG) was “weakened anti-mycobacterial activity”, the MIC (M. bovis BCG; 168 h, read-out: MIC (Aerobic)) was 100 µM (≈ 27.8 µg/mL) and the MIC (M. bovis BCG; 336 h, read-out: MIC (Hypoxic)) was greater than 200 µM. The IC50 at 72 h [1] was less than 1 µM and the “cytotoxicity (in words)” value (HUVECs) was “enhanced cytotoxicity”.

In the case of COC1=CC(=O)c2cc(NCCc3ccccc3)cnc2C1=O [Compound 32, 7-Methoxy-3-(phenethylamino)quinoline-5,8-dione], the “anti-mycobacterial activity (in words)” value (M. bovis BCG) is reported as “weakened anti-mycobacterial activity”, the MIC (M. bovis BCG; 168 h, read-out: MIC (Aerobic)) is reported as 25 µM (≈ 7.71 µg/mL) and the MIC (M. bovis BCG; 336 h, read-out: MIC (Hypoxic)) is reported as 50 µM (≈ 15.4 µg/mL). For the same compound, the IC50 at 72 h [1] was less than 1 µM and the “cytotoxicity (in words)” value (HUVECs) was “enhanced cytotoxicity”.

For O=c1c(NCCc2ccccc2)c[nH]c2ccccc12 [Compound 35, 3-(Phenethylamino)quinolin-4(1H)-one], the “anti-mycobacterial activity (in words)” value (M. bovis BCG) was “no anti-mycobacterial or cytotoxic activity”, the MIC (M. bovis BCG; 168 h, read-out: MIC (Aerobic)) was greater than 200 µM and the MIC (M. bovis BCG; 336 h, read-out: MIC (Hypoxic)) was greater than 200 µM. For the same compound, the IC50 at 72 h [1] was greater than 100 µM and the “cytotoxicity (in words)” value (HUVECs) was “no anti-mycobacterial or cytotoxic activity”.

In the case of O=C(Cc1ccccc1)Nc1cnc2ccccc2c1 [Compound 36, 2-Phenyl-N-(quinolin-3-yl)acetamide], the “anti-mycobacterial activity (in words)” value (M. bovis BCG) is reported as “significantly weakened anti-mycobacterial activity”, the MIC (M. bovis BCG; 168 h, read-out: MIC (Aerobic)) is reported as 100 µM (≈ 26.2 µg/mL) and the MIC (M. bovis BCG; 336 h, read-out: MIC (Hypoxic)) is reported as 100 µM (≈ 26.2 µg/mL). The IC50 at 72 h [1] was 4.9 µM.

For CN(CCc1ccccc1)c1cnc2ccccc2c1 [Compound 37, N-Methyl-N-phenethylquinolin-3-amine], the “anti-mycobacterial activity (in words)” value (M. bovis BCG) was “antibacterial activity comparable to that of 6”, the MIC (M. bovis BCG; 168 h, read-out: MIC (Aerobic)) was 6.25 µM (≈ 1.64 µg/mL) and the MIC (M. bovis BCG; 336 h, read-out: MIC (Hypoxic)) was 50 µM (≈ 13.1 µg/mL). It also gave an IC50 at 72 h [1] of 16 µM.

With C#CCN(CCc1ccccc1)c1cnc2ccccc2c1 [Compound 38, N-Phenethyl-N-(prop-2-yn-1-yl)quinolin-3-amine] the “anti-mycobacterial activity (in words)” value (M. bovis BCG) was “significantly weakened anti-mycobacterial activity”, the MIC (M. bovis BCG; 168 h, read-out: MIC (Aerobic)) was 100 µM (≈ 28.6 µg/mL) and the MIC (M. bovis BCG; 336 h, read-out: MIC (Hypoxic)) was 100 µM (≈ 28.6 µg/mL). The IC50 at 72 h [1] was 18 µM.

In the case of c1ccc(CCOc2cnc3ccccc3c2)cc1 [Compound 40, 3-Phenethoxyquinoline], the “anti-mycobacterial activity (in words)” value (M. bovis BCG) is reported as “significantly weakened anti-mycobacterial activity”, the MIC (M. bovis BCG; 168 h, read-out: MIC (Aerobic)) is reported as 50 µM (≈ 12.5 µg/mL) and the MIC (M. bovis BCG; 336 h, read-out: MIC (Hypoxic)) is reported as 100 µM (≈ 24.9 µg/mL). The IC50 at 72 h [1] was 11 µM.

Compound c1ccc2ncc(NCCC3CCCCC3)cc2c1 [Compound 42, N-(2-Cyclohexylethyl)quinolin-3-amine] has an MIC (M. bovis BCG; 168 h, read-out: MIC (Aerobic)) of 50 µM (≈ 12.7 µg/mL), an MIC (M. bovis BCG; 336 h, read-out: MIC (Hypoxic)) of 100 µM (≈ 25.4 µg/mL) and an IC50 at 72 h [1] of 15 µM.

With c1ccc2ncc(NCCc3cccc4ccccc34)cc2c1 [Compound 43, N-(2-(Naphthalen-1-yl)ethyl)quinolin-3-amine] the “anti-mycobacterial activity (in words)” value (M. bovis BCG) was “markedly reduced anti-mycobacterial activity”, the MIC (M. bovis BCG; 168 h, read-out: MIC (Aerobic)) was 100 µM (≈ 29.8 µg/mL) and the MIC (M. bovis BCG; 336 h, read-out: MIC (Hypoxic)) was greater than 200 µM. The IC50 at 72 h [1] was 11 µM.

For c1ccc2cc(CCNc3cnc4ccccc4c3)ccc2c1 [Compound 44, N-(2-(Naphthalen-2-yl)ethyl)quinolin-3-amine], the “anti-mycobacterial activity (in words)” value (M. bovis BCG) was “good anti-mycobacterial activity under aerobic and hypoxic conditions”, the MIC (M. bovis BCG; 168 h, read-out: MIC (Aerobic)) was 6.25 µM (≈ 1.86 µg/mL) and the MIC (M. bovis BCG; 336 h, read-out: MIC (Hypoxic)) was 12.5 µM (≈ 3.73 µg/mL). The IC50 at 72 h [1] was 13 µM.

For c1csc(CCNc2cnc3ccccc3c2)c1 [Compound 45, N-(2-(Thiophen-2-yl)ethyl)quinolin-3-amine], the MIC (M. bovis BCG; 168 h, read-out: MIC (Aerobic)) was 6.25 µM (≈ 1.59 µg/mL), the MIC (M. bovis BCG; 336 h, read-out: MIC (Hypoxic)) was 50 µM (≈ 12.7 µg/mL) and the IC50 at 72 h [1] was 14 µM.

C#CCCNc1cnc2ccccc2c1 [Compound 46, N-(But-3-yn-1-yl)quinolin-3-amine] showed an MIC (M. bovis BCG; 168 h, read-out: MIC (Aerobic)) greater than 200 µM, an MIC (M. bovis BCG; 336 h, read-out: MIC (Hypoxic)) greater than 200 µM and an IC50 at 72 h [1] of 53 µM.

With NNC(=O)c1ccncc1 [isoniazid, reference compound] the MIC (M. bovis BCG; 168 h, read-out: MIC (Aerobic)) was 0.39 µM (≈ 0.0535 µg/mL) and the MIC (M. bovis BCG; 336 h, read-out: MIC (Hypoxic)) was greater than 200 µM.
